Experimental data from patent EP2628482A1, “Rho kinase inhiitors for use in the treatment of neuroblastoma” (Academisch Medisch Centrum, priority 2012, dated 2013).
Counter-ions that a name gives are not always drawn.

Assays:
[1] = test system: neuroblastoma cell lines (IMR32, SJNB8, SKNBE, SY5Y, SHEP2, SKNAS); test: Light microscopy of phenotypical changes after ROCK inhibitor treatment; type: cell-based; conditions: 25µM, 65 hours; cell bodies smaller, more elongated, neurite outgrowths appear
[2] = test system: neuroblastoma cell lines (SKNBE, IMR, SJNB8, SHEP2, SKNAS, SY5Y); test: MTT assay (cell viability); type: cell-based; conditions: for cell viability: all 6 neuroblastoma cell lines, 72 hours, 3 to 200 µM; for IC50: range over 6 neuroblastoma cell lines, 72 hours treatment, dose efficacy curves, read-out: IC50 (concentration drug needed for 50% cell viability reduction)
Protocol: To determine the sensitivity of the cell lines for the ROCK-inhibitors Y27632 and HA 1077 MTT assays were done. […] The IC50 (concentration drug needed for 50% cell viability reduction) of Y27632 determined by dose efficacy curves varied from 18 to 90 µM.
Cells were plated in a 10-30% confluence in a 96-well plate and treated after 24 hours with Y27632 (=Y27632 dihydrochloride; Tocris; Cat.nr. 1254) and HA1077 (=Fasudil hydrochloride; Tocris; Cat.nr. 0541) in a concentration ranging from 3 to 200 µM. 72 hours after treatment, 10 µl of Thyazolyl blue tetrazolium bromide (MTT, Sigma M2128) was added. After 4 hours of incubation 100 µl of 10% SDS, 0.01 M HCI was added to stop the reaction. The absorbance was measured at 570 nm and 720 nm using a platereader (biotech). The IC50 (concentration drug needed for 50% cell viability reduction) was calculated using concentration vector curves.

SHEP2 cells = test: Immunofluorescence (actin / tubulin staining); type: cell-based; conditions: 50 micromolar, 24 hours of treatment
off-target kinases = conditions: reported by Aerie Pharmaceuticals; cited from earlier work
ROCK = conditions: cited from earlier work

Row | IC50 [2] [µM] | Structure (SMILES) | phenotype of the cells (light microscope) [1] | cell viability [2] | actin organization (phalloidin staining) (SHEP2 cells) | tubulin localization (SHEP2 cells) | number of off-target kinases tested at which activity was seen (off-target kinases) | potency against ROCK (ROCK)
1 | 18 to 90 | C[C@@H](N)[C@H]1CC[C@H](C(=O)Nc2ccncc2)CC1 [Y27632, Y27632 dihydrochloride] | more neuronal-like (differentiated) phenotype | decrease in viability | – | – | – | –
2 | 15 to 45 | O=S(=O)(c1cccc2cnccc12)N1CCCNCC1 [HA 1077, Fasudil hydrochloride] | more neuronal-like (differentiated) phenotype | decrease in viability | structured actin fibres (green) disappear | moves from a nuclear localization towards the cytoplasm | – | –
3 | – | CN(C)C(C(=O)Nc1ccc2c(=O)[nH]ccc2c1)c1ccsc1 (centres unmarked) [AR-12286] | – | – | – | – | 5 | nanomolar potency
4 | – | C[C@@H](N)c1ccc(C(=O)Nc2ccnc3[nH]ccc23)cc1 [Y-39983/SNJ-1656/RKI-983] | – | – | – | – | 25 | –
